The target of this assay is BTK (Homo sapiens, UniProt Q06187). Nature of the assay: biochemical. Conditions: read-out: BTK inhibition (%), 0.75 uM BTK, […] probe 3l, 15 min preincubation.
BTK, sequence (Q06187 402-655 limits assumed): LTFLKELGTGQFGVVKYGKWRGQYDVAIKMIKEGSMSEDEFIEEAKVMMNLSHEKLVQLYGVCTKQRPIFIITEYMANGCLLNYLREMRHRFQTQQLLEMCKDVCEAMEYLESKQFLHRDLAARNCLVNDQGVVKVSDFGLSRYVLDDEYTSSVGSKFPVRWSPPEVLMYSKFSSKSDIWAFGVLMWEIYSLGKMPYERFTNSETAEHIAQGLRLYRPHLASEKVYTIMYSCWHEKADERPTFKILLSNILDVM

In general, inhibition refers to the change of the read-out against control, counted positive when it falls. `O=C(CCc1ccc(O)cc1)c1c(O)cc(O[C@@H]2O[C@H](CO)[C@@H](O)[C@H](O)[C@H]2O)cc1O` [PCM-0216363]: the inhibition at 10 µM came out at 17.8%.

For the compound `C=C1[C@H]2C[C@@]3([C@@H]1O)[C@@H](CC2=O)[C@]12[C@@H]4C[C@H]3[C@H]1N(CC)C[C@]4(C)CC[C@@H]2O` [PCM-0216364], the inhibition at 10 µM is 19.3%.

For `CC1=C(CC[C@@H](C)CO[C@@H]2O[C@H](CO)[C@@H](O)[C@H](O)[C@H]2O)O[C@H]2C[C@H]3[C@@H]4CC=C5C[C@@H](O[C@@H]6O[C@H](CO)[C@@H](O[C@@H]7O[C@@H](C)[C@H](O)[C@@H](O)[C@H]7O)[C@H](O)[C@H]6O[C@@H]6O[C@@H](C)[C@H](O)[C@@H](O)[C@H]6O)CC[C@]5(C)[C@H]4CC[C@]3(C)[C@@H]12` [PCM-0216365], the inhibition at 10 µM was -11.9%.

On to `C[C@@H]1CC[C@@]2(OC1)O[C@H]1C[C@H]3[C@@H]4CC=C5C[C@@H](O[C@@H]6O[C@H](CO)[C@@H](O)[C@H](O)[C@H]6O)CC[C@]5(C)[C@H]4CC[C@]3(C)[C@H]1[C@@H]2C` [PCM-0216366], for which the inhibition at 10 µM was -20.1%.

For `COc1cc(O)c(CC=C(C)C)c2c1C(=O)CC(c1ccc(O)cc1)O2` (stereo not shown) [PCM-0216367], the inhibition at 10 µM was 8.5%.

Turning to `C=C(C)[C@@H]1CCC2=CC(=O)C[C@@H](C)[C@]2(C)C1` [PCM-0216368], the inhibition at 10 µM worked out at 12.4%.

Take `N#C/C=C1/C=C[C@@H](O)[C@H](O)[C@H]1O[C@@H]1O[C@H](CO)[C@@H](O)[C@H](O)[C@H]1O` [PCM-0216369]: the inhibition at 10 µM was -11.6%.

Take `C[C@H]1O[C@@H](O[C@H]2CC[C@@]3(C)[C@@H](CC[C@]4(C)[C@@H]3C=CC3=C5CC(C)(C)CC[C@]5(CO)[C@@H](O)C[C@]34C)[C@]2(C)CO)[C@H](O[C@@H]2O[C@H](CO)[C@@H](O)[C@H](O)[C@H]2O)[C@@H](O[C@@H]2O[C@H](CO)[C@@H](O)[C@H](O)[C@H]2O)[C@H]1O` [PCM-0216370]: the inhibition at 10 µM turned out to be 25.5%.

Turning to `OC[C@H]1O[C@@H](Oc2cc(O)cc(/C=C/c3ccc(O[C@@H]4O[C@H](CO)[C@@H](O)[C@H](O)[C@H]4O)cc3O)c2)[C@H](O)[C@@H](O)[C@@H]1O` [PCM-0216371], the inhibition at 10 µM is -5.4%.

In the case of `COc1cc(-c2oc3cc(O)cc(O)c3c(=O)c2O[C@@H]2O[C@H](CO[C@@H]3O[C@@H](C)[C@H](O)[C@@H](O)[C@H]3O)[C@@H](O)[C@H](O)[C@H]2O[C@@H]2O[C@@H](C)[C@H](O)[C@@H](O)[C@H]2O)ccc1O` [PCM-0216372], the inhibition at 10 µM stood at 7.7%.

For the compound `C=C[C@@H]1CNC(=S)O1` [PCM-0216374], the inhibition at 10 µM was -6.2%.

For the compound `CC(C)=CCC[C@](C)(O[C@@H]1O[C@H](CO[C@@H]2OC[C@H](O)[C@H](O)[C@H]2O)[C@@H](O)[C@H](O)[C@H]1O)[C@H]1CC[C@]2(C)[C@@H]1[C@H](O)C[C@@H]1[C@@]3(C)CC[C@H](O[C@@H]4O[C@H](CO)[C@@H](O)[C@H](O)[C@H]4O[C@@H]4O[C@H](CO)[C@@H](O)[C@H](O)[C@H]4O)C(C)(C)[C@@H]3CC[C@]12C` [PCM-0216375], the inhibition at 10 µM was 7.7%.

As for `COc1ccc(-c2oc3c(CC=C(C)C)c(O)cc(O)c3c(=O)c2O)cc1` [PCM-0216376], the inhibition at 10 µM is 3.9%.

On to `C=C(C)[C@@H]1CC[C@]2(C(=O)O[C@@H]3O[C@H](CO[C@@H]4O[C@H](CO)[C@@H](O[C@@H]5O[C@@H](C)[C@H](O)[C@@H](O)[C@H]5O)[C@H](O)[C@H]4O)[C@@H](O)[C@H](O)[C@H]3O)CC[C@]3(C)[C@H](CC[C@@H]4[C@@]5(C)CC[C@H](O[C@@H]6OC[C@H](O)[C@H](O)[C@H]6O[C@@H]6O[C@@H](C)[C@H](O)[C@@H](O)[C@H]6O)[C@@](C)(CO)[C@@H]5CC[C@]43C)[C@@H]12` [PCM-0216377], for which the inhibition at 10 µM is -42.6%.

With `O=C[C@H](O)[C@@H](O)[C@H](O)[C@H](O)CO[C@H]1O[C@H](CO[C@H]2O[C@H](CO)[C@H](O)[C@H](O)[C@H]2O)[C@H](O)[C@H](O)[C@H]1O` [PCM-0216378], the inhibition at 10 µM worked out at 3.9%.

With `CN1Cc2c(ccc3c2OCO3)[C@@]2(C)[C@@H](O)Cc3cc4c(cc3[C@@H]12)OCO4` [PCM-0216379], the inhibition at 10 µM is -2.3%.

The record behind these values is paper PMC8041284, “Tunable Methacrylamides for Covalent Ligand Directed Release Chemistry” (Journal of the American Chemical Society, 2021).
